# Assay results published in publication doi:10.1101/2025.02.19.639194v1, “Bioinformatics analysis identifies sequence determinants of enzymatic activity for the PHARC associated lipase ABHD12” (biorxiv, 2025).
# Target: T1, CG15111 (Drosophila melanogaster, UniProt A1ZBH2)
# T1 construct: gene Dmel\CG15111; full-length from adult fly cDNA, C-terminal FLAG tag, pRmHa3 vector, membrane fraction of transfected S2 cells
# T1 sequence (A1ZBH2 1-393): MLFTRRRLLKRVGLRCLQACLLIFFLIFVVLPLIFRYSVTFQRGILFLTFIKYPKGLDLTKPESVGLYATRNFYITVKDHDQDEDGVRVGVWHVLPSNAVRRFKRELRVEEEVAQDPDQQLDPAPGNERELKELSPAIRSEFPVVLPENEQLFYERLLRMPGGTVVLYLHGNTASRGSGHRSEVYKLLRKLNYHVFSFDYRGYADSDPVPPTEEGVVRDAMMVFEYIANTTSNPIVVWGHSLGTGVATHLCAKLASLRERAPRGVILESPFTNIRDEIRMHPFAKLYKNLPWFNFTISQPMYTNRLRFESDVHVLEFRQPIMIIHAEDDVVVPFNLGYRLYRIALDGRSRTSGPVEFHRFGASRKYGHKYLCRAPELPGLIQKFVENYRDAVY
# Experiment: LC-MS lyso-PS lipase assay, release of C17:[…] FFA
# Format: biochemical
# Conditions: 100 uM substrate, 20 ug membrane fraction of S2 cells
structure (smiles),measurement,value
CCCCCC/C=C\CCCCCCCCC(=O)OC[C@@H](O)COP(=O)(O)OC[C@H](N)C(=O)O [C17:1 lyso-PS],"LC-MS lyso-PS lipase assay, release of C17:1 FFA",WT CG15111 had robust lyso-PS lipase activity
